We go through 23 molecules from patent US10597391B2, “Urea-containing isoxazole derivatives as FXR agonists and methods of use thereof” (Enanta Pharmaceuticals, Inc., priority 2016, dated 2020).

By EC50 is commonly meant the concentration giving half of the maximal effect.

The target of this assay is T1, human FXR (NR1H4) (Homo sapiens, UniProt Q96RI1).
T1 sequence (Q96RI1 1-486): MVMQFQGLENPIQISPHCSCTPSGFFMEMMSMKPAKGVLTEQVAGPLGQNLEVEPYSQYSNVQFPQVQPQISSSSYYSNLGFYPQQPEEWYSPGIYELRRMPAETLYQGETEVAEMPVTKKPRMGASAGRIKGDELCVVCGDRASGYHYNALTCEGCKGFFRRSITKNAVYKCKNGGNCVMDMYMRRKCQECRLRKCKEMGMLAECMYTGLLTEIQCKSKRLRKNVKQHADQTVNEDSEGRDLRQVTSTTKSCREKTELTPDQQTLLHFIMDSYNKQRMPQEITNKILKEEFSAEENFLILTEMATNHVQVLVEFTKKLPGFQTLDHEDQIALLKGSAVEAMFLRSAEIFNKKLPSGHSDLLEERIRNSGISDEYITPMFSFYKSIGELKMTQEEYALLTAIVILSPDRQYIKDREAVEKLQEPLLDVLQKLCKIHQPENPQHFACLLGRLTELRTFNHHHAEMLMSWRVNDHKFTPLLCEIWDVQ
As to the kind of experiment: Human FXR (NR1H4) Assay: Gal4 promoter driven luciferase reporter transactivation in CHO cells (Indigo Bioscience kit IB00601). Conditions: for Emax: CHO, efficacy normalized to CDCA set as 100%, read-out: Efficacy (%); for EC50: potency range, Human FXR (NR1H4) reporter assay in CHO cells, read-out: EC50. It counts as cell-based. A digest of the protocol:
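CHO reporter cells expressing human NR1H4 with luciferase driven by an FXR-responsive promoter (Gal4 system), run per manufacturer's kit. Compounds applied to plated cells, then incubated a further 22 hours at 37° C. Luciferase luminescence read after detection reagent as a surrogate of FXR activation, giving potency and efficacy.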

`CCOc1cc(C(=O)O)ccc1NC(=O)N1C2CCC1CC(OCc1c(C3CCC4(CC3)CC4)noc1C1CC1)C2` (stereo not shown) [Example 813]: the Emax turned out to be 16% and the half-maximal effective concentration (EC50) lay within 10 to 100 nM.
As for `O=C(O)c1ccc(NC(=O)N2C3CCC2CC(OCc2c(-c4ccccc4C4CC4)noc2C2CC2)C3)cc1-c1ccccc1` (stereo not shown) [Example 814], the Emax stood at 112% and the concentration for a half-maximal effect (EC50) lay within 10 to 100 nM.
The corresponding values for `O=C(O)c1ccc(NC(=O)N2C3CCC2CC(OCc2c(-c4ccccc4C(F)(F)F)noc2C2CC2)C3)cc1-c1ccccc1` (stereo not shown) [Example 815] are 36% and 10 to 100 nM.
In the same order, the values of `O=C(O)c1ccc(NC(=O)N2C3CCC2CC(OCc2c(-c4c(F)cccc4F)noc2C2CC2)C3)cc1-c1ccccc1` (stereo not shown) [Example 816] are 36% and 10 to 100 nM.
As to `O=C(O)c1ccc(NC(=O)N2C3CCC2CC(OCc2c(-c4ccccc4C(F)(F)F)noc2C2CC2)C3)c(C(F)(F)F)c1` (stereo not shown) [Example 817], the Emax worked out at 20% and the EC50 fell in the range of 10 to 100 nM.
As for `O=C(O)c1ccc(NC(=O)N2C3CCC2CC(OCc2c(-c4c(F)cccc4F)noc2C2CC2)C3)c(C(F)(F)F)c1` (stereo not shown) [Example 818], the Emax is 25% and the concentration giving a half-maximal response (EC50) is 10 to 100 nM.
Turning to `O=C(O)c1ccc(NC(=O)N2C3CCC2CC(OCc2c(C4CCC5(CC4)CC5)noc2C2CC2)C3)c(C(F)(F)F)c1` (stereo not shown) [Example 819], the Emax came to 11% and the concentration for a half-maximal effect (EC50) lay in the range of 10 to 100 nM.
For `O=C(O)c1ccc(NC(=O)N2C3CCC2CC(OCc2c(-c4ccccc4C4CC4)noc2C2CC2)C3)c(C(F)(F)F)c1` (stereo not shown) [Example 820], the Emax was 13% and the EC50 lay within 10 to 100 nM.
In the case of `COC(=O)c1ccc(NC(=O)N2C3CCC2CC(OCc2c(-c4ccccc4OC(F)(F)F)noc2C2CC2)C3)cc1OC(F)(F)F` (stereo not shown) [Example 821], the Emax was found to be 75% and the EC50 lay in the range of 10 to 100 nM.
Turning to `O=C(O)c1ccc(NC(=O)N2C3CCC2CC(OCc2c(-c4ccccc4OC(F)(F)F)noc2C2CC2)C3)cc1OC(F)(F)F` (stereo not shown) [Example 822], the Emax stood at 76% and the EC50 was less than 10 nM.
The corresponding values for `CCOc1cc(C(=O)O)ccc1NC(=O)N1C2CCC1CC(OCc1c(-c3ccccc3OC(F)(F)F)noc1C1CC1)C2` (stereo not shown) [Example 823] are 112% and 10 to 100 nM.
Take `CCOC(=O)c1ccc(NC(=O)N2C3CCC2CC(NCc2c(-c4c(Cl)cccc4Cl)noc2C2CC2)C3)cc1` (stereo not shown) [Example 825]: the Emax turned out to be 104% and the EC50 was 10 to 100 nM.
The corresponding values for `O=C(O)c1ccc(NC(=O)N2C3CCC2CC(NCc2c(-c4c(Cl)cccc4Cl)noc2C2CC2)C3)cc1` (stereo not shown) [Example 826] are 63% and 10 to 100 nM.
On to `CCOC(=O)c1cccc(NC(=O)N2C3CCC2CC(NCc2c(-c4c(Cl)cccc4Cl)noc2C2CC2)C3)c1` (stereo not shown) [Example 827], for which the Emax was 110% and the EC50 was less than 10 nM.
For `O=C(O)c1cccc(NC(=O)N2C3CCC2CC(NCc2c(-c4c(Cl)cccc4Cl)noc2C2CC2)C3)c1` (stereo not shown) [Example 828], the Emax was 59% and the EC50 is 10 to 100 nM.
`CCOC(=O)c1ccc(NC(=O)N2C3CCC2CC(NCc2c(-c4c(Cl)cccc4Cl)noc2C2CC2)C3)c(OCC)c1` (stereo not shown) [Example 829]: the Emax was 57% and the EC50 lay within 10 to 100 nM.
On to `CCOc1cc(C(=O)O)ccc1NC(=O)N1C2CCC1CC(NCc1c(-c3c(Cl)cccc3Cl)noc1C1CC1)C2` (stereo not shown) [Example 830], for which the Emax came out at 82% and the EC50 was less than 10 nM.
On to `CCOC(=O)c1ccc(NC(=O)N2C3CCC2CC(NCc2c(-c4ccccc4OC(F)(F)F)noc2C2CC2)C3)c(OCC)c1` (stereo not shown) [Example 831], for which the Emax came out at 15% and the EC50 fell in the range of 10 to 100 nM.
In the same order, the values of `CCOc1cc(C(=O)O)ccc1NC(=O)N1C2CCC1CC(NCc1c(-c3ccccc3OC(F)(F)F)noc1C1CC1)C2` (stereo not shown) [Example 832] are 50% and 10 to 100 nM.
As to `COC(=O)c1ccc2c(c1)CN(C(=O)N1C3CCC1CC(OCc1c(-c4ccccc4OC(F)(F)F)noc1C1CC1)C3)CC2` (stereo not shown) [Example 833], the Emax is 80% and the EC50 was greater than 1000 nM.
On to `O=C(O)c1ccc2c(c1)CN(C(=O)N1C3CCC1CC(OCc1c(-c4ccccc4OC(F)(F)F)noc1C1CC1)C3)CC2` (stereo not shown) [Example 834], for which the Emax was 102% and the EC50 was in the range of 100 to 1000 nM.
`O=C(Nc1cncc(-c2ccccc2)c1)N1C2CCC1CC(OCc1c(-c3c(Cl)cccc3Cl)noc1C1CC1)C2` (stereo not shown) [Example 835]: the Emax was determined as 223% and the EC50 is less than 10 nM.
In the same order, the values of `O=C(Nc1cccc(-c2ccncc2)c1)N1C2CCC1CC(OCc1c(-c3c(Cl)cccc3Cl)noc1C1CC1)C2` (stereo not shown) [Example 836] are 135% and less than 10 nM.
